For orientation: IC50 means the concentration that inhibits the measured activity by half.

The values below come from ChEMBL document CHEMBL3232722, “Synthesis and kinase inhibitory activity of new sulfonamide derivatives of pyrazolo[4,3-e][1,2,4]triazines” (Eur J Med Chem, 2014).

In test [1] the test system is MCF7. As to the kind of experiment: In vitro antiproliferative activity against human MCF7 cells assessed as decrease cell viability after 24 hrs by MTT assay. As to conditions: for IC50: MCF7, 24 h. In kind it is functional, cell-based. (Tetrazolium assays rely on reduction of a dye to a coloured formazan, in cell work by metabolically active cells.)
In test [2] the test system is MDA-MB-231. The test can be described thus: In vitro antiproliferative activity against human MDA-MB-231 cells assessed as decrease in cell vaibility after 24 hrs by MTT assay. In kind it is functional, cell-based. As to conditions: for IC50: MDA-MB-231, 24 h.
Another test deals with K562. As to the kind of experiment: In vitro antiproliferative activity against human K562 cells assessed as decrease in cell viability after 24 hrs by MTT assay. In kind it is functional, cell-based. The conditions noted are these: for IC50: K562, 24 h.
The nature of test [3]: (§1) In vitro antiproliferative activity against human BV173 cells assessed as decrease in cell viability after 24 hrs by MTT assay. In kind it is functional, cell-based. The conditions noted are these: BV-173, 24 h.
Another test concerns BV-173. Described as §1. In kind it is functional, cell-based.
The subject of the next test is HL-60. The test can be described thus: In vitro antiproliferative activity against human HL60 cells assessed as decrease in cell viability after 24 hrs by MTT assay. In kind it is functional, cell-based. As to conditions: for IC50: HL-60, 24 h, read-out: IC50.
A further test has as its system CCRF-CEM. The test can be described thus: In vitro antiproliferative activity against human CCRF-CEM cells assessed as decrease in cell viability after 24 hrs by MTT assay. In kind it is functional, cell-based.
Test [4] has as its system MCF7. The test can be described thus: Cytostatic activity against human MCF7 cells assessed as decrease in [3H]thymidine incorporation into DNA after 24 hrs by liquid scintillation counting analysis. The class given is functional, cell-based. (Incorporation of labelled thymidine or its analogues reports DNA synthesis.)
For test [5], the system named is MDA-MB-231. As to the kind of experiment: Cytostatic activity against human MDA-MB-231 cells assessed as decrease in [3H]thymidine incorporation into DNA after 24 hrs by liquid scintillation counting analysis. The class given is functional, cell-based.
Test [6] has as its target T1, Tyrosine-protein kinase ABL1 (Homo sapiens, UniProt P00519). The test can be described thus: Inhibition of recombinant Abl kinase (unknown origin) expressed in Sf9 cells using GGEAIYAAPFKK as substrate in presence of [gamma33P]ATP.
Test [7] concerns the target T1, Tyrosine-protein kinase ABL1. The test can be described thus: Inhibition of recombinant Abl kinase (unknown origin) expressed in Sf9 cells assessed as residual enzyme activity using GGEAIYAAPFKK as substrate at 10 uM in presence of [gamma33P]ATP.
Test [8] shares this target. As to the kind of experiment: Inhibition of recombinant Abl kinase (unknown origin) expressed in Sf9 cells assessed as residual enzyme activity using GGEAIYAAPFKK as substrate at 25 uM in presence of [gamma33P]ATP.
Test [9] shares this target. The test can be described thus: Inhibition of recombinant Abl kinase (unknown origin) expressed in Sf9 cells assessed as residual enzyme activity using GGEAIYAAPFKK as substrate at 50 uM in presence of [gamma33P]ATP.
The target in test [10] is Cyclin-dependent kinase 2/cyclin E1 (Homo sapiens, UniProt P24941). The test can be described thus: Inhibition of CDK2/cyclin E (unknown origin) expressed in Sf9 cells using histone H1 as substrate in presence of [gamma33P]ATP.
Test [11] has as its target Casein kinase II subunit alpha (Homo sapiens, UniProt P68400). As to the kind of experiment: Inhibition of CK2alpha1 (unknown origin) using casein as substrate in presence of [gamma33P]ATP.

T1 sequence (P00519 whole entry): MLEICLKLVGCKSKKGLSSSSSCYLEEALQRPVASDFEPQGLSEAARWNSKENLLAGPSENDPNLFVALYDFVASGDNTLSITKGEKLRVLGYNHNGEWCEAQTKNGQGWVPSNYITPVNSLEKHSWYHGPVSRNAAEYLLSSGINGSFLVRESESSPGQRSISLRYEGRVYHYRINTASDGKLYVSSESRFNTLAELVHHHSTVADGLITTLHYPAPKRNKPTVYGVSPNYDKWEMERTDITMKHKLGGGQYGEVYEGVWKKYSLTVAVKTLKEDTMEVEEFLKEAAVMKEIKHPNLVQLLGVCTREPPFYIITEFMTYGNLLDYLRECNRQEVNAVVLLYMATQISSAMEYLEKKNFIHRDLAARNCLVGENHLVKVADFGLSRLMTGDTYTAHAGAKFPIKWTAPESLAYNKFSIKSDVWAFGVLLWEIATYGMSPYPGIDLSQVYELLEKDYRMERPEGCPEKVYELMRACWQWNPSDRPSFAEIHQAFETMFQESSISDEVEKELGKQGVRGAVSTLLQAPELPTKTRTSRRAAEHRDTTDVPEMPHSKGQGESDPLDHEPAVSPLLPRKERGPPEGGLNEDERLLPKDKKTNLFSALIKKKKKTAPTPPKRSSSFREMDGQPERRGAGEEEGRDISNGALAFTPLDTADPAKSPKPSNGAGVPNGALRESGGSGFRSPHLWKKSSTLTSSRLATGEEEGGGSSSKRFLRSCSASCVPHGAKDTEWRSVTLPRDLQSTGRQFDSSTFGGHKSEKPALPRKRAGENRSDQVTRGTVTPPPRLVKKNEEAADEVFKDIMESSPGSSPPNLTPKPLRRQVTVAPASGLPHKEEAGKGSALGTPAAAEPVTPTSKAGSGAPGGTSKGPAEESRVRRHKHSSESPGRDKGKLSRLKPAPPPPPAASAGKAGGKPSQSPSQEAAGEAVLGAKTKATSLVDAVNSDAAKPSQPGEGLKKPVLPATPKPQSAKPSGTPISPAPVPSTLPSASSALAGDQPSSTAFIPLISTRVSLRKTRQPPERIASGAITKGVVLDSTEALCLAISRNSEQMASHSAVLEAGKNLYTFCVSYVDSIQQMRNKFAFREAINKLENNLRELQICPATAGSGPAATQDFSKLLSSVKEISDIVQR
Sequence of Casein kinase II subunit alpha (P68400 whole entry): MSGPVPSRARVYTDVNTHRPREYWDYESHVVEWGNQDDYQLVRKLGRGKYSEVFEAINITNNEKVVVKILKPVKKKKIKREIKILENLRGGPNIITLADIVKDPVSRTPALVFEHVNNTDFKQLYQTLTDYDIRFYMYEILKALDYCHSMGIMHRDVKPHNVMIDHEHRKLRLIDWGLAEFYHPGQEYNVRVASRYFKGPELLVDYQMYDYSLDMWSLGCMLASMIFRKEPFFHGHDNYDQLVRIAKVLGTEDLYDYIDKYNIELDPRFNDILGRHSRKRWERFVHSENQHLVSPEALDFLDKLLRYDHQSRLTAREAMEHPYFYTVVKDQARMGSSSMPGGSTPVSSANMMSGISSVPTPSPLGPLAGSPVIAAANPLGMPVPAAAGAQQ

Turning to `Cc1nn(C)c2nnc(Nc3ccc(S(N)(=O)=O)cc3)nc12`, the inhibition result in the test on MCF7 [1], in the test with MDA-MB-231 [2], in the test on K562, in the test on BV-173, in the test on HL-60 and in the test with CCRF-CEM was “Dose-dependent effect” each time. In addition, the inhibition result in the test with MCF7 [4] and in the test with MDA-MB-231 [5] was “Dose-dependent effect” in each case. For the same compound, the IC50 in the test on MCF7 [1] is > 200 µM; with MDA-MB-231 [2], > 200 µM; in the test on K562 it was 106 µM; in test [3], 45 µM; with HL-60, 58 µM; in the test on CCRF-CEM, 50 µM. Also, the IC50 in the test on MCF7 [4] was > 200 µM; in the test on MDA-MB-231 [5], > 200 µM; in test [6] it was 33 µM; in [10], > 50 µM; in test [11] it was > 50 µM. Besides, the figures for the Activity in test [7], in [8] and in [9] were 95%, 63% and 33%, respectively.
Take `Cc1nn(C)c2nnc(Nc3ccc(S(=O)(=O)N4CCCCC4)cc3)nc12`: the inhibition entry in the test with MCF7 [1], in the test with MDA-MB-231 [2], with K562, in the test with BV-173, in the test with HL-60 and with CCRF-CEM was “Dose-dependent effect” each time. The inhibition result in the test on MCF7 [4] and with MDA-MB-231 [5] was “Dose-dependent effect” throughout. For the same compound, the half-inhibitory concentration (IC50) in the test with MCF7 [1] is 200 µM; with MDA-MB-231 [2], 140 µM; with K562 it was 98 µM; in test [3], 36 µM; in the test on HL-60, 24 µM; in the test on CCRF-CEM it was 30 µM. Further, the concentration for half-maximal inhibition (IC50) is 150 µM in the test with MCF7 [4]; 135 µM in the test on MDA-MB-231 [5]; > 25 µM in [6]; > 25 µM in [10]; > 25 µM in test [11]. Also, the Activity stood at 100% in [7] and 98% in test [8].
With `Cc1nn(C)c2nnc(Nc3ccc(S(=O)(=O)N4CCOCC4)cc3)nc12`, the inhibition result in the test on MCF7 [1], in the test on MDA-MB-231 [2], with K562, in the test with BV-173, with HL-60 and with CCRF-CEM was “Dose-dependent effect” each time. Besides, the inhibition result in the test with MCF7 [4] and in the test with MDA-MB-231 [5] was “Dose-dependent effect” each time. Also, the IC50 is > 200 µM in the test with MCF7 [1]; > 200 µM with MDA-MB-231 [2]; 90 µM with K562; 58 µM in test [3]; 39 µM in the test on HL-60; 69 µM in the test on CCRF-CEM. Besides, the IC50 with MCF7 [4] is > 200 µM; in the test with MDA-MB-231 [5] it was > 200 µM; in test [6], > 25 µM; in test [10], > 25 µM; in test [11] it was > 25 µM. For the same compound, the Activity in test [7] was determined as 88%; in [8], 80%.
